Results on one compound are retold here after patent US20250002470A1, “NITROGEN-CONTAINING COMPOUND, PREPARATION METHOD THEREFOR AND APPLICATION THEREOF” (ZHEJIANG AIXPLORER BIOTECH CO., LTD., priority 2021, published 2025).

One data set addresses hERG potassium channel (Homo sapiens, UniProt Q12809). Nature of the data set: Whole-cell patch-clamp (QPatch) of hERG current in HEK293 cells stably expressing hERG. Format: cell-based. How it is done: In this study, a whole-cell patch-clamp technique was used to study the inhibitory effect of compounds on hERG potassium channels and to evaluate the risk of ventricular repolarization toxicity.
The HEK293 cell line stably expressing the hERG potassium channel cells was purchased from Creacell, Inc. (Cat. No. A-0320).
The HEK293 cell line that can stably express the hERG potassium channel, was cultured in DMEM medium containing 10% fetal bovine serum and 0.8 mg/mL G418 at 37° C. and 5% carbon dioxide.
Before the test, the cells were separated with TrypLET Express, centrifuged after adding medium to terminate digestion, resuspended the cell count, adjusted the cell density to 2-3×10^6 cells/mL, and then lightly mixed the cells on a room temperature equilibration shaker for 15-20 min.
Electrophysiological assays were performed using a fully automated patch-clamp QPatch 48 X (Sophion) device. The prepared cells were placed on a centrifuge on the Qpatch bench, the cells were washed using multiple centrifugation/suspension methods, and the cell culture medium was replaced with extracellular fluid. Remove an MTP-96 plate and place it in the location of the MTP source. Remove the QPlate chip and subsequently place the QPlate at the Qplate source location. The robotic arm scans the MTP-96 board and the QPlate chip barcode and grabs it to the measuring station. Draw the intracellular and external fluid from the liquid pool and add them to the intracellular fluid pool, cell and test cell pool of the QPlate chip, respectively. At the measuring station, all measuring sites on the QPlate undergo initial quality control. The quality control process includes aspirating the cell suspension from the cell vessel of the centrifuge and positioning the cells to the chip wells via a pressure controller to establish a high-resistance seal and create a whole-cell recording pattern.
The voltage stimulation protocol for whole-cell patch-clamp recording of whole-cell hERG potassium currents is as follows: the cell membrane voltage clamps at −80 mV when a whole-cell closure is formed. The clamping voltage is depolarized from −80 mV to −50 mV for 0.5 s (as a leakage current detection), then steps to 30 mV for 2.5 s, and then quickly recovers to −50 mV for 4 s to excite the tail current of the hERG channel. The data were collected repeatedly every 10 s to observe the effect of the drug on the hERG tail current. −50 mV stimulation at 0.5 s was used as the leakage current detection. The test data is collected by Qpatch and stored in the connected service station.
First, the current after the effect of each drug concentration and the blank control current are normalized 0, and then the inhibition rate corresponding to each drug concentration is calculated.
Calculate the mean and standard error for each concentration and calculate the semi-inhibitory concentration for each compound using the following Formula:
Y=Bottom+(Top−Bottom)/(1+10^((LogIC50−X)*HillSlope)) The above Formula was used to fit the dose-dependent effect nonlinearly, where C represents the test substance concentration, IC50 is the semi-inhibitory concentration, and h represents the Hill coefficient. Curve fitting and IC50 calculations were performed using Graphpad software.

Data set [1] has as its system DSS-induced acute enteritis mouse model. Nature of the data set: DSS-induced acute enteritis mouse model (body weight, DAI score, colon length). The class given is in vivo, C57BL/6 mice. The procedure: (§1) Grouping and modeling: One day before the start of the experiment, all C57BL/6 mice were ear-labeled and recorded, and the animals with appropriate weight and normal status were selected for grouping (Sham group, vehicle group and embodiment 33 group). 10 animals per group; 3.5% dextran sulfate sodium salt (DSS, MP, molecular weight 36000-50000) prepared with sterile water is loaded into the drinking bottle in the vehicle and the 33 testing groups of rearing cages in the embodiment (100 mL per cage, replace the 3.5% DSS solution after 2-3 days with freshly prepared solution), and the animals in the vehicle and the 33 testing groups of the embodiment are free to drink for 10 consecutive days. The Sham group drank the normal water not containing DSS. Embodiment 33 compound is administered orally BID.
1) Body Weight Change (%)=BWi/BW0×100%, BWi is the average body weight of mice in the group on a given day, BW0 is the average body weight of mice before the start of treatment.
2) DAI score: The Disease Activity Index (DAI) scoring criteria are as follows:
3) Colon length: After the last dose, all animals were euthanized with CO2 and dissected. The entire colon (anus-cecum section) was isolated, moistened with ice-cold saline, smoothed and laid flat. On the dissecting board, without applying external force to stretch, use a digital vernier caliper to measure the length of the colon and record it, and take photos for retention.

The next data set has as its system IL-1β. Description: Inflammatory factor IL-1β in serum and colon, DSS-induced acute enteritis mouse model. The class given is in vivo, C57BL/6 mice. The settings on record: 50 mpk, BID. How it is done:
as §1
4) Detection of inflammatory factors: Blood was collected from all animals under their jaws, and serum was separated; serum and colon tissue IL-10 and IL-18 cytokines were detected according to the detection method in the Effect Embodiment 4.

The nature of data set [2]: Safety investigation, oral administration to SD rats for 14 consecutive days. The settings on record: 14 days.
Setting [3] is: 50 mpk P.O Bid, 3.5% DSS, day 11, n = 10.

Marks after values point to notes of the source that are not given here.

Sequence of hERG potassium channel (Q12809 whole entry): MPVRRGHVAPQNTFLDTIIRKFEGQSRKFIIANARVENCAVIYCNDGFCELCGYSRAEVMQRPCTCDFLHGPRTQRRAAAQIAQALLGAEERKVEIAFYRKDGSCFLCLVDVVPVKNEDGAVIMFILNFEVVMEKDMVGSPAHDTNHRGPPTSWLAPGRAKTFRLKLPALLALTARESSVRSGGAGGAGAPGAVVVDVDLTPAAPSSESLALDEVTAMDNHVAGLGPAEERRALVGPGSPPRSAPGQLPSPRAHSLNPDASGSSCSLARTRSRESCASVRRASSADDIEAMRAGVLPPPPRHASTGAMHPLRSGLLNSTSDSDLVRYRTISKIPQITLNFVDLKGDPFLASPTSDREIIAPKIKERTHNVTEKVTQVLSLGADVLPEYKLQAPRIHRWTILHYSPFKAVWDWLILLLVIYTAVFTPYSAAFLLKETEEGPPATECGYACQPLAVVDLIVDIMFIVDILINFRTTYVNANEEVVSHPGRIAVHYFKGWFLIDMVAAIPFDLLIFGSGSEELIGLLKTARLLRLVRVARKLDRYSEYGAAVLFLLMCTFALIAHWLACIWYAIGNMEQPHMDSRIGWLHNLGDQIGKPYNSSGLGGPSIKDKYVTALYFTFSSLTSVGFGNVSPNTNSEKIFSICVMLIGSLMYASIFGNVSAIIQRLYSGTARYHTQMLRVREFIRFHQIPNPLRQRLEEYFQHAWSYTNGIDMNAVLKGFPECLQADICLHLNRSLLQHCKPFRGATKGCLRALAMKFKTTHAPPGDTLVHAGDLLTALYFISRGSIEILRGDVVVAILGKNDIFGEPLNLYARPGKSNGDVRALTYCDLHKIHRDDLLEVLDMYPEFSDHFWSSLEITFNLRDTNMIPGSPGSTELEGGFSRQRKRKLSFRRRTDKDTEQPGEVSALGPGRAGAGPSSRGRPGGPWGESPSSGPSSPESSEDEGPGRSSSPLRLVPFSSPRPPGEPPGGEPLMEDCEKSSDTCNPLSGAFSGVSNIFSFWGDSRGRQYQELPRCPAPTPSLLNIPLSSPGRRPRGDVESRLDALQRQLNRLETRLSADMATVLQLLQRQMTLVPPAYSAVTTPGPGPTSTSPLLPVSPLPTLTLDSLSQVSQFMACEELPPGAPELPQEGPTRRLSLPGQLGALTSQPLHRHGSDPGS

The IC50 is the concentration that gives 50% inhibition. As for `Cc1nc(N[C@@H]2CCCC[C@H]2O)nnc1-c1ccc(C(F)(F)F)cc1O` [Embodiment 33], the IC50 at hERG potassium channel was above 30 µM. The “curative effect on animals with DSS-induced acute enteritis (IBD)” value in data set [1] (50mpk P.O Bid) is “significant curative effect”. Also, the “Day 11 weight change (%)” value in data set [1] (setting [3]) was found to be 88.09%. Further, the “Rate of body weight loss (%)” value in data set [1] (setting [3]) amounted to 11.91%**. Besides, the DAI score turned out to be 0.00 in data set [1] (50 mpk P.O Bid, Day 3); 2.60 ± 0.45 in data set [1] (50 mpk P.O Bid, Day 5); 4.40 ± 0.6 in data set [1] (50 mpk P.O Bid, Day 7); 6.20 ± 0.68 in data set [1] (50 mpk P.O Bid, Day 9); 7.80 ± 0.63 in data set [1] (50 mpk P.O Bid, Day 11). In addition, in data set [1] (50 mpk P.O Bid, after the last dose, n = 10), the Colon length was found to be 58.27 ± 1.48 mm. Further, in the data set on IL-1β, the IL-1β in serum was determined as 290.3 ± 30.65. In addition, in the data set on IL-1β, the “IL-1β in the colon” value was 6.018 ± 0.9675. The “dose without any toxic effects” value in data set [2] is given as at most 2000 mg/kg.
